Measured values taken from ChEMBL document CHEMBL5385861, “Development of novel hydrazidoarylaminopyrimidine-based BTK/FLT3 dual inhibitors with potent in vivo anti-hematological malignancies effects” (Eur J Med Chem, 2023).
The source made the active and inactive calls. The rule behind the calls is not given here.

Tests used:
[1] = target: Serine-protein kinase ATM (Homo sapiens) (UniProt Q13315); test: Inhibition of ATM (unknown origin) at 0.2 uM incubated for 40 mins by radiometric kinase assay relative to control
[2] = target: Tyrosine-protein kinase Blk (Homo sapiens) (UniProt P51451); test: Inhibition of BLK (unknown origin) at 0.2 uM incubated for 40 mins by radiometric kinase assay relative to control
Chain of Tyrosine-protein kinase Blk (Homo sapiens) (P51451 2-505 limits assumed): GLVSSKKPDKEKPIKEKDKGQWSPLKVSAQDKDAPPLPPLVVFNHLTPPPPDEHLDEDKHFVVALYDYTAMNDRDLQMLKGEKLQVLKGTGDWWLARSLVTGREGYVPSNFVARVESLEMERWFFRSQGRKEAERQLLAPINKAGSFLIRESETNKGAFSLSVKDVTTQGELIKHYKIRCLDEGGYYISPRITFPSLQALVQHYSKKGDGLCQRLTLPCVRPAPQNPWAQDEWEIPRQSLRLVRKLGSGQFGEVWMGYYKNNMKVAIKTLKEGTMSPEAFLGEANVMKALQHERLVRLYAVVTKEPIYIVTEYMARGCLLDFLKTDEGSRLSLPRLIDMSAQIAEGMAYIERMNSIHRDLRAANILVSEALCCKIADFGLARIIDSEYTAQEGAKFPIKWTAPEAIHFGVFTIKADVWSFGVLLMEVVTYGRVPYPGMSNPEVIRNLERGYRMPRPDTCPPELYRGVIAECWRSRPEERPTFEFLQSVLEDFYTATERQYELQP

[3] = target: Serine/threonine-protein kinase B-raf (Homo sapiens) (UniProt P15056); test: Inhibition of B-Raf (unknown origin) at 0.2 uM incubated for 40 mins by radiometric kinase assay relative to control
Chain of Serine/threonine-protein kinase B-raf (Homo sapiens) (P15056 whole entry): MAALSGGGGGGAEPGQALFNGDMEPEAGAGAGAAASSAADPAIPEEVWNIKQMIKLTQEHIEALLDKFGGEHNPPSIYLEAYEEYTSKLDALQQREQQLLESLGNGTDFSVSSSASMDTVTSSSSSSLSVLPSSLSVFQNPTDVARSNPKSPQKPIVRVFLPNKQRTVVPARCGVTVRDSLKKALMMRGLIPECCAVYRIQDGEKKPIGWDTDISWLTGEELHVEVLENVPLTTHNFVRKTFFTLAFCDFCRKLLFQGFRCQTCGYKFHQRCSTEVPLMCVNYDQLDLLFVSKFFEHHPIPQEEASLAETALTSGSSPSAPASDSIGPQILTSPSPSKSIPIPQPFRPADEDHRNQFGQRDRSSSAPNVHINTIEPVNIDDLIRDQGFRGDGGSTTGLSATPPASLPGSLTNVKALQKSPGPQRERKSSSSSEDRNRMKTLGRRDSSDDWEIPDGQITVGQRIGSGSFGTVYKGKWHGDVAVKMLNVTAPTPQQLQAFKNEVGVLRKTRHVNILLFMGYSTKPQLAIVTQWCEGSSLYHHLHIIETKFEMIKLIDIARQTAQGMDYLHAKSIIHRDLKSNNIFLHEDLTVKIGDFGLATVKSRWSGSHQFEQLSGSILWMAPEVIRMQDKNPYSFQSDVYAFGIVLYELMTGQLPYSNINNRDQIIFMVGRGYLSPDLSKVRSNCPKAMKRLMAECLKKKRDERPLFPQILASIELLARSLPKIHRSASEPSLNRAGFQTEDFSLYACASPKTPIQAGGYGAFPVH

[4] = target: Death-associated protein kinase 1 (Homo sapiens) (UniProt P53355); test: Inhibition of DAPK1 (unknown origin) at 0.2 uM incubated for 40 mins by radiometric kinase assay relative to control
Chain of Death-associated protein kinase 1 (Homo sapiens) (P53355 whole entry, looked up): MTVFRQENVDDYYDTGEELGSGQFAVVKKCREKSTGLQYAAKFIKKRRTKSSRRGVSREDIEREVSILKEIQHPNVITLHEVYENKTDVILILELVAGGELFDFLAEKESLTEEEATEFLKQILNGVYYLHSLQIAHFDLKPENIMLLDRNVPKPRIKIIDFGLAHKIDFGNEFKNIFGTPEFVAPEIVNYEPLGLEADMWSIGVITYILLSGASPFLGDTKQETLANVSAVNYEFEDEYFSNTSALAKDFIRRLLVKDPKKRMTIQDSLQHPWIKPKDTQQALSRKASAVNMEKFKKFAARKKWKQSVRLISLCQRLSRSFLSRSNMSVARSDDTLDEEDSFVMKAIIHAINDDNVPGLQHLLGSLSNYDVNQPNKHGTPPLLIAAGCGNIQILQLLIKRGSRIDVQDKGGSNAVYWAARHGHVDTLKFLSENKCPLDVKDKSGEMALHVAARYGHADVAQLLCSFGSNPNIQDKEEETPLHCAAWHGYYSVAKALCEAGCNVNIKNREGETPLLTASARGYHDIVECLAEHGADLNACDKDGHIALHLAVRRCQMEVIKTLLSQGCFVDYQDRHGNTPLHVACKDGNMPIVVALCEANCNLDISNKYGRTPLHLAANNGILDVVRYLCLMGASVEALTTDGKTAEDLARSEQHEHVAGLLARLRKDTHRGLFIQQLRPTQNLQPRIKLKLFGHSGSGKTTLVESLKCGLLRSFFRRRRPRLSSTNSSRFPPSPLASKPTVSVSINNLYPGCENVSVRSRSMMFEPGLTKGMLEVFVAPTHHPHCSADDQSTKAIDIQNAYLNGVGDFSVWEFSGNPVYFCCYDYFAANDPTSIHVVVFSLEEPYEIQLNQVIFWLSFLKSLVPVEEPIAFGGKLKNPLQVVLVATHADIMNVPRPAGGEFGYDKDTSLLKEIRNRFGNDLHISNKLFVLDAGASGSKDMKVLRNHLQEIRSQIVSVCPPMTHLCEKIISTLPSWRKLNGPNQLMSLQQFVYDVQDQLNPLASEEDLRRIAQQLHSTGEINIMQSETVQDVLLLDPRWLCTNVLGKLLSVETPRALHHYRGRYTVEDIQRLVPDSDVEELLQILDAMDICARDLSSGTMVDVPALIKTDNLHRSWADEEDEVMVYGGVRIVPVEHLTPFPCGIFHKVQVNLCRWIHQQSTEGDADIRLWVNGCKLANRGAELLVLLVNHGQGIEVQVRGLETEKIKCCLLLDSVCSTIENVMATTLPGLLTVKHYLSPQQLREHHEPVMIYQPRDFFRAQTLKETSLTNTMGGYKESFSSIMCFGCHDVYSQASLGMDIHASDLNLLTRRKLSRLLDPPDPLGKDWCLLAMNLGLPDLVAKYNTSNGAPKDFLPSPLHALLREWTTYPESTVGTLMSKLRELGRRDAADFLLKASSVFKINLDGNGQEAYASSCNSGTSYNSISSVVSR

[5] = tested on: Receptor-type tyrosine-protein kinase FLT3 (Homo sapiens), P36888 [D835Y]; test: Inhibition of FLT3 D835Y mutant (unknown origin) at 0.2 uM incubated for 40 mins by radiometric kinase assay relative to control
[6] = target: Macrophage colony-stimulating factor 1 receptor (Homo sapiens) (UniProt P07333); test: Inhibition of Fms (unknown origin) at 0.2 uM incubated for 40 mins by radiometric kinase assay relative to control
[7] = target: Inhibitor of nuclear factor kappa-B kinase subunit beta (Homo sapiens) (UniProt O14920); test: Inhibition of IKKbeta (unknown origin) at 0.2 uM incubated for 40 mins by radiometric kinase assay relative to control
Chain of Inhibitor of nuclear factor kappa-B kinase subunit beta (Homo sapiens) (O14920 whole entry): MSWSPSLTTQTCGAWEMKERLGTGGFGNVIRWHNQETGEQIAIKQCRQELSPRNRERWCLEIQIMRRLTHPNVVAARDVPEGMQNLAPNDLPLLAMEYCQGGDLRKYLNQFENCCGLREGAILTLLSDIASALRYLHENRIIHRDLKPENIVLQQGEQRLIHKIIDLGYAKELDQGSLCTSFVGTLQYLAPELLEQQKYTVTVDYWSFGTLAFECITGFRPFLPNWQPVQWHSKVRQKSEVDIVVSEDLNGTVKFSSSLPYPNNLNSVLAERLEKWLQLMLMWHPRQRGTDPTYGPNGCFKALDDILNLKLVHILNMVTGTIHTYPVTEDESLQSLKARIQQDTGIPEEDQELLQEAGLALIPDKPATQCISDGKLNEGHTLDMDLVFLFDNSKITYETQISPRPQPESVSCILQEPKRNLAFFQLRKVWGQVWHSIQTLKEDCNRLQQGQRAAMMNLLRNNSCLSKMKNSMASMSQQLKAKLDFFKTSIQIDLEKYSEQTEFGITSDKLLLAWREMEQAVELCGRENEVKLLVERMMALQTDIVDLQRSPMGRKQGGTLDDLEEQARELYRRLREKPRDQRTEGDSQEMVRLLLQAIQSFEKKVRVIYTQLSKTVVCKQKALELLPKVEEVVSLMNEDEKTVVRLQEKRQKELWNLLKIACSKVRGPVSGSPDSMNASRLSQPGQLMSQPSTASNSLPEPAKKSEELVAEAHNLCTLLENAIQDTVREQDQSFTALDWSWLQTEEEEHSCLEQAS

[8] = target: Mitogen-activated protein kinase 8 (Homo sapiens) (UniProt P45983); test: Inhibition of JNK1alpha1 (unknown origin) at 0.2 uM incubated for 40 mins by radiometric kinase assay relative to control
Chain of Mitogen-activated protein kinase 8 (Homo sapiens) (P45983 whole entry): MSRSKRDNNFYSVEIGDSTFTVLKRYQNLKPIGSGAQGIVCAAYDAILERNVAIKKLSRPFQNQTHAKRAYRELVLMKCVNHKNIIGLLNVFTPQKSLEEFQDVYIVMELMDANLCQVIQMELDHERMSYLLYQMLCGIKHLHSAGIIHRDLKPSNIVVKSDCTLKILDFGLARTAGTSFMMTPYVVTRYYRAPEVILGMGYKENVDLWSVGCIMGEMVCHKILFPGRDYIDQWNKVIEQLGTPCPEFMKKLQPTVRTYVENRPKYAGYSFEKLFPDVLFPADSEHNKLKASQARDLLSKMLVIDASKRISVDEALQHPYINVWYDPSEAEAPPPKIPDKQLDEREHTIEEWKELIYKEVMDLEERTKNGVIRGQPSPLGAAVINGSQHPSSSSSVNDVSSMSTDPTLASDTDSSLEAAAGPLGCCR

[9] = target: Serine/threonine-protein kinase mTOR (Homo sapiens) (UniProt P42345); test: Inhibition of mTOR (unknown origin) at 0.2 uM incubated for 40 mins by radiometric kinase assay relative to control
[10] = target: Serine/threonine-protein kinase pim-1 (Homo sapiens) (UniProt P11309); test: Inhibition of PIM-1 (unknown origin) at 0.2 uM incubated for 40 mins by radiometric kinase assay relative to control
[11] = target: Serine/threonine-protein kinase PLK1 (Homo sapiens) (UniProt P53350); test: Inhibition of PLK1 (unknown origin) at 0.2 uM incubated for 40 mins by radiometric kinase assay relative to control
[12] = target: Tyrosine-protein kinase receptor TYRO3 (Homo sapiens) (UniProt Q06418); test: Inhibition of RSE (unknown origin) at 0.2 uM incubated for 40 mins by radiometric kinase assay relative to control
Chain of Tyrosine-protein kinase receptor TYRO3 (Homo sapiens) (Q06418 whole entry): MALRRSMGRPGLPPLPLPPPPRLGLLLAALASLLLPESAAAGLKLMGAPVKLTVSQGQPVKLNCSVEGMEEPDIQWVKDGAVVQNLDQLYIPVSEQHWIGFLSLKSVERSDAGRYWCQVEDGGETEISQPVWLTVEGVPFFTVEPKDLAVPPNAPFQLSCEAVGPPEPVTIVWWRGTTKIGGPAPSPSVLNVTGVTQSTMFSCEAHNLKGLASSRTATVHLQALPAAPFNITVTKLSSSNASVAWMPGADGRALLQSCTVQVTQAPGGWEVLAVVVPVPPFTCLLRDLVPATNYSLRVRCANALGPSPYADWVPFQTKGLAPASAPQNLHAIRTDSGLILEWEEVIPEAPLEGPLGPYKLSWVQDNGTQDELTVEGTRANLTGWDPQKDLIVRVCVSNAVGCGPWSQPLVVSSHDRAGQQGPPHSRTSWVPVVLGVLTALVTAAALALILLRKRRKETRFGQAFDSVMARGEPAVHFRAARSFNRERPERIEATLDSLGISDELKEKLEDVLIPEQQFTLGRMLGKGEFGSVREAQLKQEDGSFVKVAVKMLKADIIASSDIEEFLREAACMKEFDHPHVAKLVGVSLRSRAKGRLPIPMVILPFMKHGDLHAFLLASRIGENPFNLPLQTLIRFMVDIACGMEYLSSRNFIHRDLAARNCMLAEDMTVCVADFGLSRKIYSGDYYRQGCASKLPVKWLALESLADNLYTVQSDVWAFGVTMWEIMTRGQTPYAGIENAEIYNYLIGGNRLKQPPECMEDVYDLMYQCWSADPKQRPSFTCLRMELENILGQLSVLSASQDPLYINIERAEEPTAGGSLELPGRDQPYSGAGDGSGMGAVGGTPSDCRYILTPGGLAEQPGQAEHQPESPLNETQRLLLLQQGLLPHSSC

JeKo-1 [13] = test: Potency index, ratio of spebrutinib IC50 to test compound IC50 for antiproliferative activity against human JeKo-1 cells; assay type: functional
MOLT-4 = test: Potency index, ratio of ibrutinib IC50 to test compound IC50 for antiproliferative activity against human MOLT-4 cells; assay type: functional
K562 = test: Potency index, ratio of ibrutinib IC50 to test compound IC50 for antiproliferative activity against human K562 cells; assay type: functional
JeKo-1 [14] = test: Potency index, ratio of sorafenib IC50 to test compound IC50 for antiproliferative activity against human JeKo-1 cells; assay type: functional
JeKo-1 [15] = test: Induction of apoptosis in human JeKo-1 cells assessed as early apoptotic cells at 30 nM incubated for 72 hrs by Annexin VFITC/PI staining based flow cytometry analysis (reference value: 3.10%); assay type: functional
JeKo-1 [16] = test: Induction of apoptosis in human JeKo-1 cells assessed as late apoptotic cells at 30 nM incubated for 72 hrs by Annexin VFITC/PI staining based flow cytometry analysis (reference value: 1.42%); assay type: functional
JeKo-1 [17] = test: Induction of apoptosis in human JeKo-1 cells assessed as necrotic cells at 30 nM incubated for 72 hrs by Annexin VFITC/PI staining based flow cytometry analysis (reference value: 0.67%); assay type: functional
JeKo-1 [18] = test: Induction of apoptosis in human JeKo-1 cells assessed as viable cells at 150 nM incubated for 72 hrs by Annexin VFITC/PI staining based flow cytometry analysis (reference value: 94.81%); assay type: functional; conditions: read-out: Activity
JeKo-1 [19] = test: Induction of apoptosis in human JeKo-1 cells assessed as early apoptotic cells at 150 nM incubated for 72 hrs by Annexin VFITC/PI staining based flow cytometry analysis (reference value: 3.10%); assay type: functional
JeKo-1 [20] = test: Induction of apoptosis in human JeKo-1 cells assessed as necrotic cells at 150 nM incubated for 72 hrs by Annexin VFITC/PI staining based flow cytometry analysis (reference value: 0.67%); assay type: functional
JeKo-1 [21] = test: Induction of apoptosis in human JeKo-1 cells assessed as necrotic cells at 750 nM incubated for 72 hrs by Annexin VFITC/PI staining based flow cytometry analysis (reference value: 0.67%); assay type: functional
JeKo-1 [22] = test: Induction of apoptosis in human JeKo-1 cells assessed as upregulation of Bax protein expression at 30 to 750 nM incubated for 72 hrs by Western blot analysis; assay type: functional, cell-based; conditions: dose 30-750 nM
JeKo-1 [23] = test: Induction of apoptosis in human JeKo-1 cells assessed as upregulation of cleaved caspase-3 protein expression incubated for 72 hrs by Western blot analysis; assay type: functional, cell-based; conditions: dose 30-750 nM
[24] = Acute toxicity in ICR mouse assessed as animal survival at 468.8 mg/kg, ip measured for 2 weeks; assay type: organism-based; conditions: in vivo
[25] = Acute toxicity in ICR mouse assessed as animal survival at 375 mg/kg, ip measured for 2 weeks; assay type: organism-based; conditions: in vivo
[26] = Acute toxicity in ICR mouse assessed as animal survival at 300 mg/kg, ip measured for 2 weeks; assay type: organism-based; conditions: in vivo
[27] = Toxicity in NOD/SCID mouse xenografted with human JeKo-1 cells assessed as eating abnormalities at 25 to 50 mg/kg, ip measured for 16 days; assay type: organism-based; conditions: in vivo, 384 h, dose 25-50 mg/kg, time 16 day
MV4-11 [28] = test: Antitumor activity against human MV4-11 cells xenografted in ip dosed NOD/SCID mouse assessed as suppression of tumor growth administered once daily for 21 days; assay type: functional, organism-based; conditions: dose 10-20 mg/kg, time 21.0 day
MV4-11 [29] = test: Antitumor activity against human MV4-11 cells xenografted NOD/SCID mouse assessed as increase in tumor necrotic cells at 20 mg/kg, ip administered once daily for 21 days by H and E staining analysis; assay type: functional, organism-based; conditions: time 21.0 day
MV4-11 [30] = test: cells; conditions: Homo sapiens, MV4-11, 72 h
P-glycoprotein = test: in vitro; conditions: human, Caco-2
Description: Efflux ratio of apparent permeability across basolateral to apical side over apical to basolateral side in human Caco-2 cells incubated for 120 mins in presence of P-glycoprotein by LC-MS/MS analysis

## CN1CCN(c2ccc(Nc3ncc(F)c(Nc4ccccc4C(=O)NN)n3)cc2)CC1
[1]
  inhibition: -6%
[2]
  inhibition: 62%
[3]
  inhibition: 17%
[4]
  inhibition: -1%
[5]
  inhibition: 101%
[6]
  inhibition: 67%
[7]
  inhibition: 15%
[8]
  inhibition: 27%
[9]
  inhibition: -7%
[10]
  inhibition: 28%
[11]
  inhibition: 7%
[12]
  inhibition: 24%
JeKo-1 [13]
  Ratio IC50: 8
MOLT-4
  Ratio IC50: 6
K562
  Ratio IC50: 6
JeKo-1 [14]
  Ratio IC50: 1.3
JeKo-1 [15]
  Activity: 12.08%
JeKo-1 [16]
  Activity: 0.18%
JeKo-1 [17]
  Activity: 0.22%
JeKo-1 [18]
  viability at 0.15 µM: 72.4%
JeKo-1 [19]
  Activity: 25.6%
JeKo-1 [20]
  Activity: 0.37%
JeKo-1 [21]
  Activity: 0.11%
JeKo-1 [22]
  Activity: Active
JeKo-1 [23]
  Activity: Dose-Dependent Effect
[24]
  survival at 336 h: 10%
[25]
  survival at 336 h: 40%
[26]
  survival at 336 h: 60%
[27]
  Activity: Non-Toxic
MV4-11 [28]
  Activity: Dose-Dependent Effect
MV4-11 [29]
  Activity: Active
MV4-11 [30]
  IC50: 3 nM
P-glycoprotein
  efflux ratio at 2 h: 2.64
